Assay results taken from patent US7183054B2, “Assay for identifying biological targets of polynucleotide-binding compounds” (President and Fellows of Harvard College, priority 2003, dated 2007).

Experiments:
GAPDH [1] = target: T1, GAPDH (Bos taurus, UniProt P10096); assay: Affinity chromatography with drug-alkylated dsDNA resin in bovine brain lysate (GAPDH); type: binding; details: ds-oligonucleotide resin alkylated with drug; bovine brain lysate, 4° C.; silver-stained SDS-PAGE
T1 construct: from tissue; host or cells: bovine brain homogenate

Human erythrocyte GAPDH = target: T2, Human erythrocyte GAPDH (Homo sapiens, UniProt P04406); assay: Southwestern blot of GAPDH with 32P-labeled dsDNA-drug complexes; type: binding; details: membrane probed with 32P labeled DNA alkylated with drug
T2 construct: Human erythrocyte GAPDH (Sigma 6019) was dissovled in ddH2O; purchased Sigma 6019 (G6019); host or cells: human erythrocytes
Protocol: FIG. 5 depicts the Southwestern blot technique using GAPDH and saframycins. FIG. 5A is a schematic of the Southwestern blot technique. […] The membranes with GAPDH were incubated with the various ^32P-labeled dsDNA-drug complexes. Lane 1: free dsDNA control; Lane 2: HQ alkylated dsDNA; Lane 3: QAD alkylated dsDNA; Lane 4: Pt 650 alkylated dsDNA; Lane 5: SafA alkylated dsDNA.
(§1) Construction of Drug-based Affinity Resin. The amino-modified QAD and its hemiaminal derivative, amino-modified HQ was prepared by coupling SafA synthetic intermediate^11 with 6-(4-Fmoc-amino-n-butoxy)-quinaldic acid followed by Fmoc deprotection. The amino-modified QAD/HQ was purified by reverse-phase HPLC and coupled to AffiGel-15. […] The amount of drug coupled to the affinity resin was determined by quantifying the drug that remained in the supernatant using reverse-phase HPLC. […] The supernatant solution was analyzed by reverse-phase HPLC. The amount of ds-oligonucleotide detected in the supernatant from the heating step was taken to be the amount of ds-oligonucleotide coupled to drug on the affinity resin in the form of stable dsDNA-drug binary complex. […] The concentration of double-stranded 21-mer DNA on the resin was determined by heat denaturing the double strand DNA on a known amount of resin and subsequently determining the concentration of complementary strand in free solution by UV spectrometry. […]

GAPDH [2] = assay: Affinity chromatography with drug-alkylated dsDNA resin in bovine brain lysate (GAPDH); type: binding; details: summary statement
A375 melanoma = A375 melanoma tumor cell line; cited from earlier work
A549 lung carcinoma = A549 lung carcinoma tumor cell line; cited from earlier work
A549 cells = assay: GI50 in GAPDH siRNA transfected A549 cells (MTS); type: cell-based; details: 72 hours drug exposure
HMG1 = target: T3, HMG1 (Bos taurus, UniProt P10103); assay: Affinity chromatography with drug-alkylated dsDNA resin in bovine brain lysate (HMG1); type: binding; details: ds-oligonucleotide resin alkylated with drug; pre-cleared bovine brain lysate
T3 construct: from tissue; host or cells: bovine brain homogenate
T3 sequence (P10103 1-215): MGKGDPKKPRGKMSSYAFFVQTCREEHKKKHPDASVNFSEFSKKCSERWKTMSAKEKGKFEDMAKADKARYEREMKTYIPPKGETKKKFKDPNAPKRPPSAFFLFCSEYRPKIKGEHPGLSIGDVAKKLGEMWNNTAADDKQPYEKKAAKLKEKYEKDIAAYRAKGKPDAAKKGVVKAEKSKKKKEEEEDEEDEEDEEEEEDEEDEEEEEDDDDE
Protocol: FIG. 4 is a photograph of a silver-stained SDS-PA gel showing the affinity chromatography results. The affinity matrix was incubated in bovine brain lysate at 4° C., washed extensively, and heat denatured to release bound proteins. […]
as §1, with “Resin.” for “Resin. The amino-modified QAD and its hemiaminal derivative, amino-modified HQ was prepared by coupling SafA synthetic intermediate^11 with 6-(4-Fmoc-amino-n-butoxy)-quinaldic acid followed by Fmoc deprotection. The amino-modified QAD/HQ was purified by reverse-phase HPLC and coupled to AffiGel-15.”

T1 sequence (P10096 2-333): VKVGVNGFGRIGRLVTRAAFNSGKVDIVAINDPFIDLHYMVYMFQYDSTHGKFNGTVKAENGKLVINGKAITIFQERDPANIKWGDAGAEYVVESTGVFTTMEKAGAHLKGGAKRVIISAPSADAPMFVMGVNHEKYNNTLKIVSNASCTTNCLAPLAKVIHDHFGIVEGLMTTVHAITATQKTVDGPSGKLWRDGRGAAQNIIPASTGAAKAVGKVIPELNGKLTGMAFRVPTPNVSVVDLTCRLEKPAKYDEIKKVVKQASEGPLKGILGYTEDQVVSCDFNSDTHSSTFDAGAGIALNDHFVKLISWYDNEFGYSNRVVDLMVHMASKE
T2 sequence (P04406 whole entry): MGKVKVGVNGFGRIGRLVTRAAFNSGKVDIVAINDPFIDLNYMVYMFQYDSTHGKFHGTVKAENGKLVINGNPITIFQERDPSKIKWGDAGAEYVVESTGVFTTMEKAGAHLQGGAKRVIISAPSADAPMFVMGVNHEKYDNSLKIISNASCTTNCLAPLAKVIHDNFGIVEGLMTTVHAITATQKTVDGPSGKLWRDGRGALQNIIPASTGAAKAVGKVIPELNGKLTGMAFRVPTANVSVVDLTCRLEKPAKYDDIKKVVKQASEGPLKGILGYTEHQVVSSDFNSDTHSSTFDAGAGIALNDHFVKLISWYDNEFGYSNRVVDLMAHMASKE

Row | SMILES | binding of 37-kDa protein (GAPDH) to drug-dsDNA binary complex (GAPDH [1]) | radioactivity at GAPDH protein band (Human erythrocyte GAPDH) | cellular target found (GAPDH [2]) | IC50 (A375 melanoma) | IC50 (A549 lung carcinoma) | GI50 change in GAPDH siRNA transfected cells vs control siRNA (A549 cells) | GI50 change in GAPDH siRNA transfected cells vs control siRNA (A549 cells; listed as cis-platin) | binding of 31-kDa protein (HMG1) to drug-dsDNA binary complex (HMG1)
1 | COc1c(C)cc2c(c1O)[C@@H]1[C@@H]3Cc4c(OC(C)=O)c(C)c5c(c4[C@H](CN4C(=O)c6ccccc6C4=O)N3[C@@H](C#N)[C@H](C2)N1C)OCO5 [Pt 650, phthalascidin] | bind specifically | radioactivity was detected | – | – | – | – | – | –
2 | COC1=C(C)C(=O)C2=C(C1=O)[C@@H]1[C@@H]3CC4=C(C(=O)C(OC)=C(C)C4=O)[C@H](CNC(=O)C(C)=O)N3[C@@H](C#N)[C@H](C2)N1C [(−)-Saframycin A] | bind specifically | radioactivity was detected | target cellular GAPDH | 5.3 nM | 133 nM | – | – | –
3 | N.N.[Cl][Pt][Cl] [cisplatin] | did not bind | – | – | – | – | nearly the same sensitivity | unchanged | bind specifically
4 | N.N.[Cl][Pt+2][Cl] [transplatin] | did not bind | – | – | – | – | – | – | did not recruit any protein
5 | COc1cc2c(cc1O)CCN[C@]21CS[C@@H]2c3c(OC(C)=O)c(C)c4c(c3[C@H](COC1=O)N1[C@@H]2[C@H]2c3c(cc(C)c(OC)c3O)C[C@@H]([C@@H]1O)N2C)OCO4 [Ecteinascidin 743] | – | – | target cellular GAPDH | 0.15 nM | 1 nM | – | – | –
